Measured values reported in paper PMC5146284, “Molecular imaging with engineered physiology” (Nature Communications, 2016).

Assays:
[1] = tested on: rat brain (thalamus); assay: MRI of haemodynamic response to intracranial CGRP infusion; format: in vivo, rat (Sprague-Dawley); conditions: inferred from MRI time course during intracranial infusion
Text: Haemodynamic contrast provided sufficient resolution to monitor convective spread of the imaging agent from the site of infusion (Supplementary Fig. 1b).
Magnetic resonance imaging
Nineteen Sprague-Dawley rats were used for in vivo MRI experiments. […]
Animals were scanned by MRI to measure the changes in haemodynamic contrast following intracranial injections. […] Breathing rate and end-tidal expired isoflurane were continuously monitored. […]
Signals were averaged over six animals in 1.5 mm square regions of interest (ROIs) positioned around the infusion cannulae tips in each animal (cf. Fig. 2d); gray shading denotes standard errors as a function of time. (b) Time courses from multiple approximately concentric ROIs (diagrammed at left) were analyzed to determine whether hemodynamic MRI has sufficient spatial resolution to monitor convection of CGRP from the infusion site. For each ROI, the delay between the start of infusion and the ob-servation of statistically significant signal changes from baseline was measured (color coded bars at right). […]

[2] = tested on: enterokinase (EK) light chain; assay: Proteolytic cleavage by enterokinase light chain (SDS-PAGE); format: biochemical; conditions: 10 µM sensor, 2 h, 37 °C, different EK concentrations
Protocol: (§1) Proteolytic cleavage reactions
(§2) Supplementary Fig. 4. Proteolytic cleavage of candidate sensors and assessment by bioas-say. (a-e) Cleavage reaction products after incubation of 10 µM sensor with or without enzyme for 2 h at 37 °C. (a) MALDI mass spectrum of sensor (1) after incubation with or without FAP […]
(§3) (b) SDS-PAGE analysis of sensor
(§4) (c) SDS-PAGE analysis of sensor (3) after incubation with different concentrations of EK light […]
(§5) (d) SDS-PAGE analysis of sen- […]
(§6) and liberation of free CGRP. (f-k) Dose-response curves of uncleaved and cleaved sensors in […]
(§7) (f) Dose-response curves for Sensors (2-4) at final assay concentrations up to 10 uM (addition of 10 µL of 100 µM solution to 90 µL medium per well in bioassay) show no receptor activation by uncleaved GFP-linker-CGRP-G sensors even at 10-fold higher concentrations than were used in cleavage assays (g-k). (g-k) Dose-response curves for reaction products from (a-e). Error bars in (f-k) denote SD of measurements performed in triplicate.
(§8) (1 picture or pasted object on this page, not shown here)

[3] = tested on: TEV protease; assay: Proteolytic cleavage by TEV protease (SDS-PAGE); format: biochemical; conditions: 10 µM sensor, 2 h, 37 °C
Protocol: as §1, §2, §3, §4, §5, §6, §7, §8

## CC(C)C[C@H](NC(=O)CNC(=O)[C@H](C)NC(=O)[C@H](CC(C)C)NC(=O)[C@H](CCCNC(=N)N)NC(=O)[C@H](Cc1cnc[nH]1)NC(=O)[C@@H](NC(=O)[C@@H](NC(=O)[C@@H]1CSSC[C@H](NC(=O)[C@H](C)N)C(=O)N[C@@H](CC(=O)O)C(=O)N[C@@H]([C@@H](C)O)C(=O)N[C@@H](C)C(=O)N[C@@H]([C@@H](C)O)C(=O)N1)C(C)C)[C@@H](C)O)C(=O)N[C@@H](CC(C)C)C(=O)N[C@@H](CO)C(=O)N[C@@H](CCCNC(=N)N)C(=O)N[C@@H](CO)C(=O)NCC(=O)NCC(=O)N[C@H](C(=O)N[C@H](C(=O)N[C@@H](CCCCN)C(=O)N[C@@H](CC(N)=O)C(=O)N[C@@H](CC(N)=O)C(=O)N[C@@H](Cc1ccccc1)C(=O)N[C@H](C(=O)N1CCC[C@H]1C(=O)N[C@H](C(=O)N[C@@H](CC(N)=O)C(=O)N[C@H](C(=O)NCC(=O)N[C@@H](CO)C(=O)N[C@@H](CCCCN)C(=O)N[C@@H](C)C(=O)N[C@@H](Cc1ccccc1)C(N)=O)C(C)C)[C@@H](C)O)C(C)C)C(C)C)C(C)C [wtCGRP, calcitonin gene-related peptide]
[1]
  removal or degradation in brain tissue: not rapidly removed or degraded in brain tissue

## cfSGFP2-DDDDK-CGRP-G [Sensor (3), recombinant fusion of cysteine-free GFP, a short linker, enterokinase site and non-amidated CGRP]
[2]
  cleavage by EK light chain: increasing cleavage with increasing concentrations

## cfSGFP2-ENLYFQG-CGRP-G [Sensor (2), recombinant fusion of cysteine-free GFP, a short linker, TEV protease site and non-amidated CGRP]
[3]
  cleavage by TEV protease: substantial but not complete cleavage
